This is an account of results in US9499495B2, “Quinazolines and azaquinazolines as dual inhibitors of RAS/RAF/MEK/ERK and PI3K/AKT/PTEN/mTOR pathways” (Asana Biosciences, LLC, priority 2013, dated 2016).

For one experiment, the system named is pAKT (T308) in RKO cells. Kind of experiment: In Cell Western (ICW) assay, pAKT-T308 in RKO cells. The following applies: Homo sapiens, 3 h treatment. It is filed as cell-based. How it is done: (§1) Cell lines A375, A2058 and RKO obtained from the ATCC as provided above, were grown, and after attaining ˜80% confluency were trypsinized, centrifuged and resuspended in fresh media. The cells were seeded at the specified density (20,000 to 50,000) in a 96-well format black-well clear bottom plate (Corning) and incubated overnight at 37° C. in a 5% CO2 incubator. The next day, compound dilutions of test compounds were prepared in 100% DMSO followed by dilutions in respective media. Treatment of test compounds was performed for 3 h at 37° C. in 5% CO2 incubator. Following 3 h drug treatment, the conditional media was discarded and the cells were washed once with cPBS (PBS containing 0.1% magnesium chloride hexahydrate and 0.1% anhydrous calcium chloride) and fixed with 4% paraformaldehyde in cPBS for 1 h at rt. After fixing, the cells were given three washes using cPBST (cPBS containing 0.1% Triton™ X-100 reagent) and then blocked using blocking solution (5% skimmed milk powder or 5% BSA prepared in cPBST) for 2 h at rt with shaking at 300 rpm. The cells were again washed thrice with cPBST and incubated with primary antibody phospho-p44/42 MAPK(Erk1/2)(Thr202/204) antibody (Cell Signaling, Catalog # 9101L), phospho S6 ribosomal protein (Cell Signaling, Catalog #4858L), phospho AKT (Thr 308) (Cell Signaling, Catalog #9275) or phospho AKT (Ser 473) (Cell Signaling, Catalog #4060L) in specified dilutions (1:500-1:2500), prepared in respective blocking solutions, in a racker overnight at 4° C. The next day, the cells were washed with 1× Delfia® wash buffer (4×1 wash) and incubated with secondary antibody (Delfia®-Eu-N1 labeled anti-rabbit antibody; PerkinElmer, Catalog #AD0105; dilutions: 1:2000 to 1:6000 in Delfia® assay buffer (PerkinElmer, Catalog #1244-111)) for 2 h at rt in the dark at 300 rpm. The cells were then given four washes with 1× Delfia® wash buffer and incubated with Wallac Delfia® Enhancement solution (100 μL; PerkinElmer, Catalog #1244-105) for 20 min at rt in the dark at 300 rpm. The fluorescence emission was then read at 615 nm with an excitation wavelength of 340 nm using a Victor V5 Fluorometer (Perkin Elmer, US). The cells were then washed once with 1×cPBS and incubated with 100 μL of 0.5 mg/mL of Hoechst 33258 dye prepared in cPBS and read at 460 nm with 355 nm excitation, thereby evaluating the correction factor.
(§2) The % inhibition for the test compounds of formula (I) (new chemical entities (NCEs)) was calculated keeping DMSO control as 0% and the IC50 values were determined using sigmoidal dose response curve fit in GraphPad Prism® v5 software.

The target in another experiment is T1, B-RAFV600E (Homo sapiens, UniProt P15056, V600E).
T1 construct: purchased Millipore, USA 14-557
Kind of experiment: B-RAFV600E radiometric assay. The experiment is classed as biochemical. The note with it: read-out: Kinase assay B-Raf. An outline of the steps: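 B-RAFV600E was preincubated 45 min at rt with compound in 1% DMSO. MEK-K97M (0.5 μg), 5 μM final cold ATP and [γ-32P]ATP were then added for 2 h at rt. Phosphorylated MEK was captured on P81 paper and scintillation-counted; IC50 came from a sigmoidal dose-response fit.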

A further experiment deals with A375 cells. In words: XTT assay for cell viability, A375 cells. The following applies: Homo sapiens, A-375, 72 h. The experiment is classed as cell-based. An outline of the steps: (§3)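 GI50 derived by sigmoidal dose-response fitting of proliferation normalised to DMSO control (100%). Readout: A450 after 2-3 h with XTT (1 mg/ml)/PMS (25 μM), following 72 h compound treatment at 37° C., 5% CO2 of cells plated at 1000-2000 per well the previous day.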
For orientation: Tetrazolium assays rely on reduction of a dye to a coloured formazan, in cell work by metabolically active cells.

The next experiment has as its system pERK in A375 cells. Kind of experiment: In Cell Western (ICW) assay, pERK in A375 cells. It is filed as cell-based. The note with it: Homo sapiens, A-375, 3 h treatment. An outline of the steps: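 After a 3 h compound treatment at 37 °C, fixed RKO or A375 cells were probed for phospho-ERK1/2 (T202/Y204), phospho-S6RP or phospho-AKT T308 and detected with a Eu-tagged anti-rabbit antibody (ex 340/em 615 nm), with Hoechst signal as the cell-number correction. Inhibition was referenced to DMSO, and IC50 values came from sigmoidal dose-response curves.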

The test system of the next experiment is pERK in RKO cells. Kind of experiment: In Cell Western (ICW) assay, pERK in RKO cells. It is filed as cell-based. The following applies: Homo sapiens, 3 h treatment. The procedure:
as §1, §2

A further experiment relates to RKO cells. Kind of experiment: XTT assay for cell viability, RKO cells. The experiment is classed as cell-based. The following applies: Homo sapiens, 72 h. An outline of the steps: as §3
A further experiment deals with T2, PI3Kα (Homo sapiens, UniProt P42336).
T2 construct: made in house; host or cells: SF9 cells
In words: PI3 Kinase alpha TR-FRET assay. It is filed as biochemical. An outline of the steps:
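Purified Sf9-expressed p110/p85α (5 ng) was pre-incubated with compound and PIP2 at rt, then ATP was added (PIP2 and ATP both 40 μM) for a 30 min reaction. PIP3 was detected by TR-FRET displacement of biotin-PIP3, and IC50 was taken from dose-response curves of the 665/615 nm emission ratio.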

Another experiment has as its target T3, mTOR kinase (Homo sapiens, UniProt P42345).
T3 construct: purchased Millipore, US
Kind of experiment: mTOR kinase TR-FRET assay. It is filed as biochemical. An outline of the steps:
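TR-FRET with ULight-p70 S6K (Thr 389) peptide (50 nM) and 20 μM ATP in 50 mM HEPES pH 7.5, 1 mM EGTA, 3 mM MnCl2; compound pre-incubated with enzyme before substrate addition, reaction at rt, EDTA-stopped. Eu anti-phospho antibody read 665/615 nm; IC50 from sigmoidal dose-response fit.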
On the technique in general: Time-resolved FRET reads energy transfer from a long-lived donor to a nearby acceptor.

Each structure is given as a SMILES string.

T2 sequence (P42336 whole entry, species assumed): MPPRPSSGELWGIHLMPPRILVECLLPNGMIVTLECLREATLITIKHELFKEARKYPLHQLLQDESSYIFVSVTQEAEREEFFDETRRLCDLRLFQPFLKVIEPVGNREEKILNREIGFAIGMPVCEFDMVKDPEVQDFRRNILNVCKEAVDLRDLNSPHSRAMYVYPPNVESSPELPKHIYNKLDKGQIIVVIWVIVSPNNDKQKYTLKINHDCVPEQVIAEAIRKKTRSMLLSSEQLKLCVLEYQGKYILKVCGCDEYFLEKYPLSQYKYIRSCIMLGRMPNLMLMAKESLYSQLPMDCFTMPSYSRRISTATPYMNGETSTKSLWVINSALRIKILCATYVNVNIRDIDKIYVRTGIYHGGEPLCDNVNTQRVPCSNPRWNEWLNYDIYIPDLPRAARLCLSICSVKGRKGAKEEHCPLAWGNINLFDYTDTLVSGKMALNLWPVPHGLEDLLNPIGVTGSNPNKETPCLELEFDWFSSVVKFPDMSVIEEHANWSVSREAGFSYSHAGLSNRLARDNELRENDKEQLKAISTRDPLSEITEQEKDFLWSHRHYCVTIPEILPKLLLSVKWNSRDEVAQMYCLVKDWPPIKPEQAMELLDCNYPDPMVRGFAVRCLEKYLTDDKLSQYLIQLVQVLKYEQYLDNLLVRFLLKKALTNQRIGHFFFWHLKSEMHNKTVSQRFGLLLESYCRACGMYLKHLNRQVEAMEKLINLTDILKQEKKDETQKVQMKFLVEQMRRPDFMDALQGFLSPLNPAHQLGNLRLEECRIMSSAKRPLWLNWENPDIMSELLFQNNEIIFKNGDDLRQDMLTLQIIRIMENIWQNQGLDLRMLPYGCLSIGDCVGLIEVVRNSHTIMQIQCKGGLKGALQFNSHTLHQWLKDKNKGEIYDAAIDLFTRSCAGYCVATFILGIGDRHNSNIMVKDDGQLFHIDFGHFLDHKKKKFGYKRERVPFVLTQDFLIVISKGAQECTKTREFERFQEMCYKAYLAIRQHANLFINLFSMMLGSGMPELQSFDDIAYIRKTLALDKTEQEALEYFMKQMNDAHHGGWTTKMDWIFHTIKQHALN
T2 sequence (P27986 whole entry partner, species assumed): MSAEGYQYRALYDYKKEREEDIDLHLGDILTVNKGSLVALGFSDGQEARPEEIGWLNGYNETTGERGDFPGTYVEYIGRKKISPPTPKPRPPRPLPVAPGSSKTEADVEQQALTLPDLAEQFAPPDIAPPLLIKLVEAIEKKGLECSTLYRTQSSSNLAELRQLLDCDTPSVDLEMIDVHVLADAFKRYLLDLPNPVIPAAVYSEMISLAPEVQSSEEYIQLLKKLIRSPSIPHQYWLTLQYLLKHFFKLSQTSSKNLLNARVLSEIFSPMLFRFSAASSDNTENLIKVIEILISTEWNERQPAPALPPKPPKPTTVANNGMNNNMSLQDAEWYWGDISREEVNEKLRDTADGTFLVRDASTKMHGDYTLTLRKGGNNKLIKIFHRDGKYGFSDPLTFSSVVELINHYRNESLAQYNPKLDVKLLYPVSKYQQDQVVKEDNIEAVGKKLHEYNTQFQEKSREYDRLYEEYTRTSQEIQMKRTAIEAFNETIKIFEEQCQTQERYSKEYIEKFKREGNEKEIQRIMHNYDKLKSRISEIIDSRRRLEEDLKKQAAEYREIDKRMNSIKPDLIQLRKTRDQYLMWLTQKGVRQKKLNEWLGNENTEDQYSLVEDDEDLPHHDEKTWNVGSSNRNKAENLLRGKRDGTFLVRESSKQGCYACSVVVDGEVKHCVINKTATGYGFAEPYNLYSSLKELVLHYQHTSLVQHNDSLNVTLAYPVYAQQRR
T1 sequence (P15056 416-766 V600E limits assumed): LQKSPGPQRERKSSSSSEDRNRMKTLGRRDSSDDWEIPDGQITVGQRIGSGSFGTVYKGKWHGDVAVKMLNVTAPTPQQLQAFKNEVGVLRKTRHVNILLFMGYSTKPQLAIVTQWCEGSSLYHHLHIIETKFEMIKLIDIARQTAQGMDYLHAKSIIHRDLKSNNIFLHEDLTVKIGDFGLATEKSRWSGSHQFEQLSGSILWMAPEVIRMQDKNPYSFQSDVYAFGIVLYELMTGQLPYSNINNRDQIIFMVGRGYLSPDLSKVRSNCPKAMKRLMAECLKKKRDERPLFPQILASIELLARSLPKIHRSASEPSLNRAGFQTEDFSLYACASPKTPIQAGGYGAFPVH
T3 sequence (P42345 1362-2549 limits assumed): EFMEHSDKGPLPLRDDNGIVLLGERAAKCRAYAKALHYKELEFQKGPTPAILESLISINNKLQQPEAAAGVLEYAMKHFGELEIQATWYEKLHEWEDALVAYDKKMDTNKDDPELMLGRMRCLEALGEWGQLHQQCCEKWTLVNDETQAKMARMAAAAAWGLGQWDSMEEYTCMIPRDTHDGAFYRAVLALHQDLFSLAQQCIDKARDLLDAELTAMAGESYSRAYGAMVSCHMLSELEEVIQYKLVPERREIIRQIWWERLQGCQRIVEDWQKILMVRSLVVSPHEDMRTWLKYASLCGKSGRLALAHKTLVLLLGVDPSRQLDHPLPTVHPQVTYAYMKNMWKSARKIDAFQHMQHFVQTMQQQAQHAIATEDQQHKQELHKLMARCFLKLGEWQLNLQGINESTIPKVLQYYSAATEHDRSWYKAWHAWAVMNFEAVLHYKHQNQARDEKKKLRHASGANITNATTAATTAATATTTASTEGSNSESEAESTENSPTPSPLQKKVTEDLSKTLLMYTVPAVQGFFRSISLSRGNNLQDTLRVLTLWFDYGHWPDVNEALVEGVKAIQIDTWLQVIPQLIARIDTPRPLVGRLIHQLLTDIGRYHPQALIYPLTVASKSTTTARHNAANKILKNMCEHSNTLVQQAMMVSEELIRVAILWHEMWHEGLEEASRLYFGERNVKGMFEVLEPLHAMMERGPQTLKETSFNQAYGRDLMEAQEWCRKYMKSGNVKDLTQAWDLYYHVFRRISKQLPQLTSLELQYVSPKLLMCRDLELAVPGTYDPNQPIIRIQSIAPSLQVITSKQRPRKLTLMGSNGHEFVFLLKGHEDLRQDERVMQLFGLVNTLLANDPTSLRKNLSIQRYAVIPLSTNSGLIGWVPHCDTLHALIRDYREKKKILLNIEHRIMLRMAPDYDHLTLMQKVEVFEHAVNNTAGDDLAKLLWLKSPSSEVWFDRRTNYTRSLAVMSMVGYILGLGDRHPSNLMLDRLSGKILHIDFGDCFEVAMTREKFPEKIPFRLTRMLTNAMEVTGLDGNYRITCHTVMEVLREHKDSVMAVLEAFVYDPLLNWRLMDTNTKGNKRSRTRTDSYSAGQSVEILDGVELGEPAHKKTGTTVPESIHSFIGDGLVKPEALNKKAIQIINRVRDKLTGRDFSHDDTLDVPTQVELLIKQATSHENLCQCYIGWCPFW

For `Nc1ncc(-c2nc(N3CCOCC3)c3nc(-c4cccc(NS(=O)(=O)CCCF)c4F)ccc3n2)c(C(F)(F)F)n1` [Example 100, N-(3-(2-(2-amino-4-(trifluoromethyl)pyrimidin-5-yl)-4-morpholinopyrido[3,2-d]pyrimidin-6-yl)-2-fluorophenyl)-3-fluoropropane-1-sulfonamide], the IC50 in the experiment with pAKT (T308) in RKO cells lay within 100 to 1000 nM; at B-RAFV600E, 1 to 100 nM; in the experiment with A375 cells, 100 to 1000 nM; with pERK in A375 cells, 100 to 1000 nM; with pERK in RKO cells it was 1 to 100 nM; with RKO cells, 100 to 1000 nM. The same compound registered an IC50 at PI3Kα of 1 to 100 nM.

As to `Nc1ncc(-c2nc(N3CCOCC3)c3nc(-c4cccc(NS(=O)(=O)CCCF)c4F)ccc3n2)cc1F` [Example 105, N-(3-(2-(6-amino-5-fluoropyridin-3-yl)-4-morpholinopyrido[3,2-d]pyrimidin-6-yl)-2-fluorophenyl)-3-fluoropropane-1-sulfonamide], the IC50 with pAKT (T308) in RKO cells lay within 1000 to 10000 nM; at B-RAFV600E, 1 to 100 nM; in the experiment with A375 cells, 100 to 1000 nM; in the experiment with pERK in A375 cells, 100 to 1000 nM; with pERK in RKO cells, 100 to 1000 nM; with RKO cells, 1000 to 10000 nM. This compound yielded an IC50 against PI3Kα of 1 to 100 nM.

Turning to `CNC(=O)Nc1ccc(-c2nc(N3CCOCC3)c3nc(-c4cccc(NS(=O)(=O)CCCF)c4F)ccc3n2)cc1` [Example 139, 3-fluoro-N-(2-fluoro-3-(2-(4-(3-methylureido)phenyl)-4-morpholinopyrido[3,2-d]pyrimidin-6-yl)phenyl)propane-1-sulfonamide], the IC50 is 1 to 100 nM on mTOR kinase; 100 to 1000 nM in the experiment with pAKT (T308) in RKO cells; 1 to 100 nM on B-RAFV600E; 100 to 1000 nM in the experiment with A375 cells; 100 to 1000 nM in the experiment with pERK in A375 cells; 100 to 1000 nM in the experiment on pERK in RKO cells. In the experiment with RKO cells, this compound registered an IC50 of 100 to 1000 nM.

With `Nc1ncc(-c2nc(N3CCOCC3)c3nc(-c4cccc(NS(=O)(=O)CCCF)c4F)ccc3n2)cc1Cl` [Example 103, N-(3-(2-(6-amino-5-chloropyridin-3-yl)-4-morpholinopyrido[3,2-d]pyrimidin-6-yl)-2-fluorophenyl)-3-fluoropropane-1-sulfonamide], the IC50 lay within 1000 to 10000 nM in the experiment with pAKT (T308) in RKO cells; 1 to 100 nM on B-RAFV600E; 100 to 1000 nM in the experiment with pERK in A375 cells; 1000 to 10000 nM in the experiment on RKO cells; 100 to 1000 nM on PI3Kα.

Take `Cc1nc(N)ncc1-c1nc(N2CCOCC2)c2nc(-c3cccc(NS(=O)(=O)CCCF)c3F)ccc2n1` [Example 109]: the IC50 in the experiment with pAKT (T308) in RKO cells fell in the range of 1000 to 10000 nM; on B-RAFV600E it was 1 to 100 nM; with A375 cells, 100 to 1000 nM; in the experiment with pERK in A375 cells it was 1 to 100 nM; in the experiment with pERK in RKO cells, 100 to 1000 nM; at PI3Kα, 1 to 100 nM.
